Laboratory results reported in US8314098B2, “Pyrazolo-pyrimidine compounds” (Ajinomoto Co., Inc., priority 2008, dated 2012).

Tests used:
Assay type in all cases: cell-based
[1] = system: IL-12p70 (the complex of IL-12p35 and p40); test: IL-12p70 production inhibition in macrophages derived from mouse abdomen (IFN-γ/SAC stimulation, ELISA); conditions: Macrophage; mouse (Balb/c) abdominal macrophages, 100 ng/mL mouse IFN-γ + 0.05% SAC, overnight; TFA salts tested where prepared as such; read-out: IL-12p70-Inhibitory Activity IC50
Protocol: (§1) One milliliter each of a 3% (w/v) thioglycolate solution was intraperitoneally administered to mice (female Balb/c mice), the abdominal cells of each mouse were recovered after 5 or 6 days from the administration of the thioglycolate solution and the adhesive cells were collected and used in the exaluation procedures. To a culture medium containing such adhesive cells, there were added 100 ng/mL of mouse interferon-γ and a 0.05% (v/v) liquid containing killed cells derived from Staphylococcus aureus Cowan I strain (SAC) and a candidate compound and then the mixture was cultivated overnight. After the completion of the cultivation, the survival ratios were determined, there were quantitatively determined the quantities of IL-12p70 (the complex of IL-12p35 and p40) and IL-12p40 or TNF-α according to the ELISA assays while making use of the recovered supernatant of the culture medium and the 50% production-inhibitory concentration (IC50) was calculated for each case (see Table 1 and Tables 1-9 for IL-12p70 and TNF-α and Tables 1 to 10 for IL-12p40).

[2] = system: IL-12p70 (the complex of IL-12p35 and p40); test: IL-12p70 production inhibition in whole blood of mouse (IFN-γ/SAC stimulation, ELISA); conditions: mouse (Balb/c) whole blood, EDTA, 100 ng/mL mouse IFN-γ + 1.25% SAC, overnight; TFA salts tested where prepared as such
Protocol: The blood was recovered from the mice (female Balb/c mice) (containing added EDTA) and it was used for the evaluation. To a cell culture medium, there were added 100 ng/mL of mouse interferon-γ, 1.25% (v/v) of a liquid containing killed cells derived from Staphylococcus aureus Cowan I strain (SAC) and a candidate compound, the resulting mixture was diluted to a volume equivalent to the blood and then the diluted medium was cultivated overnight. After the completion of the cultivation, the amount of IL-12p70 (the complex of IL-12p35 and p40) was quantitatively determined according to the ELISA assays while making use of the recovered supernatant of the culture medium and the 50% production-inhibitory concentrations (IC50) were calculated for Compounds 38, 80, 82, 83, 84, 85, 87, 90 and 91. (see Table 3).

[3] = system: TNF-α; test: TNF-α production inhibition in macrophages derived from mouse abdomen (IFN-γ/SAC stimulation, ELISA); conditions: Macrophage; mouse (Balb/c) abdominal macrophages, 100 ng/mL mouse IFN-γ + 0.05% SAC, overnight; TFA salts tested where prepared as such; read-out: TNF-α-Inhibitory Activity IC50
Protocol: as §1

| IC50 [1] [nM] | IC50 [2] [nM] | IC50 [3] [nM] | SMILES |
| --- | --- | --- | --- |
| 140 | 4600 |  | C(=N\Nc1cc(N2CCOCC2)n2nc(N3CCOCC3)cc2n1)/c1c[nH]c2ccccc12 [Compound 128, N-(1H-indol-3-yl-methylidene)-N-(2,7-di-morpholin-4-yl-pyrazolo[1,5-a]pyrimidin-5-yl)-hydrazine] |
| 28 | 810 |  | C(=N\Nc1cc(N2CCOCC2)n2nc(-c3ccncc3)cc2n1)/c1coc2ccccc12 [Compound 95] |
| 5.6 | 2400 |  | C(=N\Nc1cc(N2CCOCC2)n2nc(-c3ccncc3)cc2n1)/c1ccnc2ccccc12 [Compound 122, N-(7-morpholin-4-yl-2-pyridin-4-yl-pyrazolo[1,5-a]-pyrimidin-5-yl)-N′-quinolin-4-yl-methylidene-hydrazine] |
| 50 | 1100 |  | C(=N\Nc1cc(N2CCOCC2)n2nc(-c3ccncc3)cc2n1)/c1cc2ccccc2o1 [Compound 96] |
| 100 | 2500 |  | C(=N\Nc1cc(N2CCOCC2)n2nc(-c3ccncc3)cc2n1)/c1ccc2[nH]ccc2c1 [Compound 104] |
| 29 | 640 |  | CCc1cccc(/C=N/Nc2cc(N3CCOCC3)n3nc(-c4ccncc4)cc3n2)c1 [Compound 118, N-(3-ethyl-benzylidene)-N-(7-morpholin-4-yl-2-pyridin-4-yl-pyrazolo[1,5-a]pyrimidin-5-yl)-hydrazine] |
| 300 | 440 |  | Cc1cccc(/C=N/Nc2cc(N3CC4COCC4C3)n3nc(-c4ccncc4)cc3n2)c1 (stereo not shown) [Compound 123, N-(3-methyl-benzylidene)-N′-[2-pyridin-4-yl-7-(tetrahydro-furo[3,4-c]pyrrol-5-yl)-pyrazolo[1,5-a]pyrimidin-5-yl]-hydrazine] |
| 170 |  | > 10000 | Nc1cccc(/C=N/Nc2cc(N3CCOCC3)n3nc(-c4ccccc4)cc3n2)c1 [Compound 140, N-(3-amino-benzylidene)-N-(7-morpholin-4-yl-2-phenyl-pyrazolo[1,5-a]pyrimidin-5-yl)-hydrazine] |
| 8.3 | 3200 |  | C(=N\Nc1cc(N2CCOCC2)n2nc(-c3ccnnc3)cc2n1)/c1c[nH]c2ccccc12 [Compound 97, N-(1H-indol-3-yl-methylidene)-N-(7-morpholin-4-yl-2-pyridazin-4-yl-pyrazolo[1,5-a]pyrimidin-5-yl)-hydrazine] |

Second part, the compound before the results:

| SMILES | IC50 [1] [nM] | IC50 [2] [nM] | IC50 [3] [nM] |
| --- | --- | --- | --- |
| Cc1cccc(/C=N/Nc2cc(N3CCOCC3)n3ncc(-c4ccccn4)c3n2)c1 [Compound 87, N-(3-methyl-benzylidene)-N′-(7-morpholin-4-yl-3-pyridin-2-yl-pyrazolo[1,5-a]pyrimidin-5-yl)-hydrazine] |  | 2400 |  |
| Cc1cccc(/C=N/Nc2cc(N3CCOCC3)n3nc(-c4ccc(N5CCOCC5)cc4)cc3n2)c1 [Compound 17, N-(3-methyl-benzylidene)-N′-{7-morpholin-4-yl-2-(4-morpholin-4-yl-phenyl)-pyrazolo[1,5-a]pyrimidin-5-yl}-hydrazine] | 4 |  | > 10000 |
| Cc1cccc(CNNc2cc(N3CCOCC3)n3nc(-c4ccccc4)cc3n2)c1 [Compound 34, N-(3-methyl-benzyl)-N′-(7-morpholin-4-yl-2-phenyl-pyrazolo[1,5-a]pyrimidin-5-yl)-hydrazine] | 24 |  | > 10000 |
| COCCNc1ccc(-c2cc3nc(N/N=C/c4cccc(C)c4)cc(N4CCOCC4)n3n2)cc1 [Compound 24, N-[2-{4-(2-methoxy-ethyl-amino)-phenyl}-7-morpholin-4-yl-pyrazolo[1,5-a]pyrimidin-5-yl]-N′-(3-methyl-benzylidene)-hydrazine] | 6 |  | > 10000 |
| Cc1ccc(-c2cc3nc(N/N=C/c4cccc(C)c4)cc(N4CCOCC4)n3n2)cc1 [Compound 3, N-(3-methyl-benzylidene)-N′-{2-(4-methylphenyl)-7-morpholin-4-yl-pyrazolo[1,5-a]pyrimidin-5-yl}-hydrazine] | 35 |  | > 10000 |
| CCCCC(=O)N1CCN(c2ccc(-c3cc4nc(N/N=C/c5cccc(C)c5)cc(N5CCOCC5)n4n3)cc2)CC1 [Compound 31, N-(3-methyl-benzylidene)-N′-{7-morpholin-4-yl-2-[4-(1-oxo-pentan-1-yl)piperazin-1-yl-phenyl]-pyrazolo[1,5-a]pyrimidin-5-yl}-hydrazine] | 18 |  | > 10000 |
| CCOC(=O)c1cc2nc(N/N=C/c3cccc(C)c3)cc(N3CCOCC3)n2n1 [Compound 81, N-(2-ethoxycarbonyl-7-morpholin-4-yl-pyrazolo[1,5-a]-pyrimidin-5-yl)-N′-(3-methyl-benzylidene)-hydrazine] | 55 |  | > 10000 |
| C(=N\Nc1cc(N2CCOCC2)n2nc(-c3ccccc3)cc2n1)/c1c[nH]c2ccccc12 [Compound 2, N-(1H-indol-3-yl-methylidene)-N′-(7-morpholin-4-yl-2-phenyl-pyrazolo[1,5-a]pyrimidin-5-yl)-hydrazine] | 33 |  | > 10000 |
| Cc1cccc(/C=N/Nc2cc(N3CCOCC3)n3nc(-c4cnccn4)cc3n2)c1 [Compound 90, N-(3-methyl-benzylidene)-N′-(7-morpholin-4-yl-2-pyrazin-2-yl-pyrazolo[1,5-a]pyrimidin-5-yl)-hydrazine] | 8.3 | 2500 |  |
| C(=N\Nc1cc(N2CCOCC2)n2nc(-c3ccccn3)cc2n1)/c1c[nH]c2ccccc12 [Compound 36, N-(1H-indol-3-yl-methylidene)-N′-(7-morpholin-4-yl-2-pyridin-2-yl-pyrazolo[1,5-a]pyrimidin-5-yl)-hydrazine] | 7 |  | > 10000 |
| Cc1cccc(/C=N/Nc2cc(N3CCOCC3)n3nc(C)cc3n2)c1 [Compound 79, N-(3-methyl-benzylidene)-N′-(2-methyl-7-morpholin-4-yl-pyrazolo[1,5-a]pyrimidin-5-yl)-hydrazine] | 220 |  | > 10000 |
| C(=N\Nc1cc(N2CCOCC2)n2ncc(-c3ccccn3)c2n1)/c1c[nH]c2ccccc12 [Compound 88, N-(1H-indol-3-yl-methylidene)-N′-(7-morpholin-4-yl-3-pyridin-2-yl-pyrazolo[1,5-a]pyrimidin-5-yl)-hydrazine] | 420 |  | > 10000 |
| Cc1cccc(/C=N/Nc2cc(N3CCOCC3)n3ncc(Br)c3n2)c1 [Compound 11, N-(3-bromo-7-morpholin-4-yl-pyrazolo[1,5-a]pyrimidin-5-yl)-N′-(3-methyl-benzylidene)-hydrazine] | 340 |  | > 10000 |
| Cc1cccc(/C=N/Nc2cc(N3CCOCC3)n3nc(-c4ccc(Cl)cc4)cc3n2)c1 [Compound 13, N-{2-(4-chlorophenyl)-7-morpholin-4-yl-pyrazolo[1,5-a]-pyrimidin-5-yl}-N′-(3-methyl-benzylidene)-hydrazine] | 34 |  | > 10000 |
| Cc1ccc(-c2nn3c(N4CCOCC4)cc(N/N=C/c4cccc(C)c4)nc3c2Br)cc1 [Compound 5, N-{3-bromo-2-(4-methylphenyl)-7-morpholin-4-yl-pyrazolo-[1,5-a]pyrimidin-5-yl}-N′-(3-methyl-benzylidene)-hydrazine] | 124 |  | > 10000 |
| Cc1cccc(/C=N/Nc2cc(N3CCOCC3)n3nc(-c4ccccc4)cc3n2)c1 [Compound 1, N-(3-methyl-benzylidene)-N′-(2-phenyl-7-morpholin-4-yl-pyrazolo[1,5-a]pyrimidin-5-yl)-hydrazine] | 19 |  | > 10000 |
